Counter-ions that a name gives are not always drawn.
Tests used:
M. smegmatis [1] = format: cell-based, Mycobacterium smegmatis
M. bovis BCG [2] = format: cell-based, Mycobacterium bovis BCG
M. smegmatis [3] = conditions: known from literature; cited from earlier work
M. bovis BCG [4] = conditions: known from literature; cited from earlier work
M. tuberculosis = conditions: known from literature; cited from earlier work
[5] = tested on: cocktail of S. aureus and P. aeruginosa; experiment: m-EIS bulk capacitance vs time, incompletely decontaminated artificial sputum with non-mycobacterial cultures; format: cell-based, Staphylococcus aureus and Pseudomonas aeruginosa; conditions: incomplete decontamination: NaOH-NALC approximately 1 minute, 0.25 N NaOH
Text: All m-EIS readings were done post digestion and decontamination of the samples using the NALC-NaOH technique. In the first case, the sample has no bacteria and no changes in charge storage (bulk capacitance) should occur at any point in time. It is expected to see a flat line as there should be no change in the bulk capacitance over time. In case three, where the sample contains gram-positive and gram-negative bacteria, but no mycobacteria, all organisms should be killed during decontamination (pre-treatment) itself, and the addition of the antibiotics is not expected to cause any changes to the measured value of bulk capacitance. However, if there are mycobacteria in the sample (as in case […]), the mycobacteria should survive the decontamination process and continue to grow in the presence of Carbenicillin (case 2B). However, they will die in the presence of amikacin (case 2A). […]
The experimental protocol requires periodic (e.g., every hour) performance of an electrical “scan” of sample aliquots in a microfluidic cassette, wherein electrical impedance was measure at multiple (200) frequencies ranging from 1 kHz to 100 MHz. […] At each frequency (ω), both the in-phase and out-of-phase components of the electrical impedance, Z, (resistance (R) and reactance (X)) were measured. […]

mycobacteria = conditions: known from literature; cited from earlier work
[6] = tested on: most other non-mycobacterial species; conditions: known from literature; cited from earlier work

SMILES	time-to-detection (TTD): earliest time at which bulk capacitance is significantly lower than baseline (M. smegmatis [1]; M. smegmatis in artificial sputum after NaOH-NALC decontamination, initial loads (1 to 5)×10^5 CFU/ml, amikacin 32 μg/ml, carbenicillin 25 μg/ml)	time-to-detection (TTD) (M. bovis BCG [2]; M. bovis BCG in artificial sputum, exposed to amikacin)	bactericidal effect (M. smegmatis [3])	bactericidal effect (M. bovis BCG [4])	bactericidal effect (M. tuberculosis)	change of bulk capacitance (impedance values) over time (M. smegmatis [1]; Case 2: M. smegmatis, P aeruginosa and S. aureus, after decontamination)	rate of increase in bulk capacitance (M. bovis BCG [2]; Case 2, M. bovis BCG, 3 hours observation)	change of bulk capacitance over time (M. bovis BCG [2]; Case 2, M. bovis BCG, duration of observation 3 hours)	change of bulk capacitance over time [5]	activity against mycobacteria (mycobacteria)	activity against non-mycobacterial species [6]
NCC[C@H](O)C(=O)N[C@@H]1C[C@H](N)[C@@H](O[C@H]2O[C@H](CN)[C@@H](O)[C@H](O)[C@H]2O)[C@H](O)[C@H]1O[C@H]1O[C@H](CO)[C@@H](O)[C@H](N)[C@H]1O [Amikacin]	< 3 h	< 3 h	bactericidal effects	bactericidal effects	bactericidal effects	–	–	–	–	–	–
CC1(C)S[C@@H]2[C@H](NC(=O)C(C(=O)O)c3ccccc3)C(=O)N2[C@H]1C(=O)O (some centres unmarked) [Carbenicillin, Carbenicillin disodium salt]	–	–	–	–	–	not found to show any decrease over time	negligible	no growth was seen	decreases in bulk capacitance were observed over time	ineffective	bactericidal

— patent US20190293584A1, “Detection of Living Cells” (priority 2018, published 2019)
